Laboratory results from PubChem BioAssay (NCI).
Several values for one entry are separate records, joined by “and”; a condition that tells them apart may be missing. Equal entries are not always repeated.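 Tested at 5 concentrations; 48 h exposure; 96-well plates; endpoints linearly interpolated, else capped at highest concentration. GI50 = concentration required for 50% inhibition of growth. TGI marks complete inhibition of growth.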

Assays:
Test in all cases: DTP human tumour cell line panel, 48 h
U251 CNS = test system: U251 CNS
MOLT-4 leukemia = test system: MOLT-4 leukemia
RXF 393 renal = test system: RXF 393 renal
MALME-3M melanoma = test system: MALME-3M melanoma
NCI-H226 lung = test system: NCI-H226 lung
KM20L2 colon = test system: KM20L2 colon
SF-539 CNS = test system: SF-539 CNS
DLD-1 colon = test system: DLD-1 colon
M14 melanoma = test system: M14 melanoma
HCT-15 colon = test system: HCT-15 colon

| Structure (SMILES) | TGI (U251 CNS) | TGI (MOLT-4 leukemia) | TGI (RXF 393 renal) | TGI (MALME-3M melanoma) | TGI (NCI-H226 lung) | TGI (KM20L2 colon) | TGI (SF-539 CNS) | TGI (DLD-1 colon) | TGI (M14 melanoma) | TGI (HCT-15 colon) | GI50 (U251 CNS) | GI50 (MOLT-4 leukemia) | GI50 (NCI-H226 lung) | GI50 (SF-539 CNS) | GI50 (DLD-1 colon) | GI50 (HCT-15 colon) | GI50 (M14 melanoma) | GI50 (RXF 393 renal) |
| --- | --- | --- | --- | --- | --- | --- | --- | --- | --- | --- | --- | --- | --- | --- | --- | --- | --- | --- |
| O=C(Cc1nc2ccccc2s1)Nc1ccc(Cl)cc1 | > 100 µM | > 100 µM | > 100 µM | > 100 µM | > 100 µM | > 100 µM | > 100 µM | > 100 µM | > 100 µM | – | – | – | – | – | – | – | – | – |
| C#Cc1c(C)c(/C=C/C(C)=C/C=C/C(C)=C/C(=O)OC)n(C)c1C | > 100 µM | > 100 µM | – | > 100 µM | – | > 100 µM | > 100 µM | > 100 µM | > 100 µM | > 100 µM | – | – | – | – | – | – | – | – |
| C[C@H](N)C(=O)N[C@@H]1[C@H]2C(=C(O)C[C@@H](O)[C@@H]2O)C(=O)O[C@]1(C)C(Cl)Cl | 3.08 µM and 2.29 µM | 3.79 µM and 0.564 µM | 0.828 µM and 1.08 µM | 1.64 µM and 1.33 µM | 1.34 µM and 1.06 µM | 2.73 µM and 3.23 µM | 2.37 µM and 0.88 µM | 1.62 µM and 2.43 µM | 1.49 µM and 0.507 µM | 10.1 µM and 5.57 µM | 0.171 µM | 0.186 µM and 0.13 µM | 0.266 µM | 0.326 µM | 0.185 µM | 0.894 µM | 0.258 µM | – |
| O=C(NCCO)c1cc2c(cn1)[nH]c1ccccc12 | > 100 µM | > 100 µM | > 100 µM | 43.9 µM | > 100 µM | > 100 µM | > 100 µM | > 100 µM | > 100 µM | > 100 µM | – | – | – | – | – | – | – | – |
| O=C(O)C1=C(C(=O)Nc2ccccc2)C2C=CC1C2 (configuration not stated) | > 100 µM | > 100 µM | > 100 µM | > 100 µM | – | > 100 µM | > 100 µM | > 100 µM | > 100 µM | > 100 µM | – | – | – | – | – | – | – | – |
| C=CCCOC(=O)CO[N+](=O)[O-] | > 100 µM | > 100 µM | > 100 µM | > 100 µM | > 100 µM | > 100 µM | > 100 µM | > 100 µM | > 100 µM | > 100 µM | – | – | – | – | – | – | – | – |
| C=CC(=O)N1C/C(=C\c2ccccc2)C(=O)/C(=C/c2ccccc2)C1 | 2.62 µM | 4.5 µM | 4.43 µM | 4.87 µM | 10.6 µM | 3.1 µM | 3.69 µM | 1.15 µM | 4.58 µM | 4 µM | 0.376 µM | 0.562 µM | – | – | – | – | – | – |
| CCSC(SCC)c1cc2c(cc1Br)OCO2 | 32.9 µM | 42.2 µM | 89.3 µM | – | 81.1 µM | 64.7 µM | 35.5 µM | > 100 µM | 56.2 µM | > 100 µM | – | – | – | – | – | – | – | – |
| CC1=C(C(=O)Nc2ccccc2C)C(c2ccc(C3C(C(=O)Nc4ccccc4C)=C(C)NC(C)=C3C(=O)Nc3ccccc3C)cc2)C(C(=O)Nc2ccccc2C)=C(C)N1 | 7.34 µM | 9.28 µM | 17.6 µM | 6.13 µM | 28.7 µM | 12.9 µM | 8.57 µM | 5.66 µM | 8.23 µM | 23.5 µM | – | – | – | – | – | – | – | – |
| COc1ccc(/C=C/C(=O)C(C)(C)CN2CCCCC2)cc1 | 30 µM | 47.9 µM | 38 µM | 79.8 µM | 45.9 µM | > 100 µM | 38.1 µM | 36.4 µM | 32.2 µM | 34.3 µM | – | – | – | – | – | – | – | – |
| CC(/C=C/C(=O)c1sc(-n2nc(-c3ccccc3)cc2-c2ccccc2)nc1C)=C\c1ccccc1 | > 100 µM | > 100 µM | > 100 µM | > 100 µM | > 100 µM | > 100 µM | > 100 µM | > 100 µM | > 100 µM | 57.6 µM | – | – | > 100 µM | – | – | – | > 100 µM | > 100 µM |
